Experimental data published in US20060069132A1, “Azolecarboxamide herbicides” (priority 2004, published 2006).

Legend:
[1] = tested on: giant foxtail; assay: Test C pre-/postemergence herbicide test; type: in vivo, Setaria faberi
How it was run: (§1)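 Seeds were planted and sprayed preemergence with test chemicals in a non-phytotoxic solvent mixture containing surfactant; postemergence treatments went onto plants 2 to 18 cm tall (1- to 4-leaf stage). After 12 to 14 days in a greenhouse, injury was rated visually against untreated controls on a 0–100 scale.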

[2] = tested on: common (oilseed) sunflower; assay: Test C pre-/postemergence herbicide test; type: in vivo, Helianthus annuus; conditions: preemergence
From the text: Seeds of plant species selected from bermudagrass (Cynodon dactylon (L.) Pers.), Surinam grass (Urochloa decumbens (Staph) R. D. Webster, previously named Brachiaria decumbens Stapf), cocklebur (Xanthium strumarium L.), corn (Zea mays L.), large crabgrass (Digitaria sanguinalis (L.) Scop.), woolly cupgrass (Eriochloa villosa (Thunb.) Kunth), giant foxtail (Setaria faberi Herrm.), goosegrass (Eleusine indica (L.) Gaertn.), johnsongrass (Sorghum halepense (L.) Pers.), kochia (Kochia scoparia (L.) Schrad.), lambsquarters (Chenopodium album L.), morningglory (Ipomoea coccinea L.), eastern black nightshade (Solanum ptycanthum Dunal), yellow nutsedge (Cyperus esculentus L.), pigweed (Amaranthus retroflexus L.), common ragweed (Ambrosia elatior L.), soybean (Glycine max (L.) Merr.), common (oilseed) sunflower (Helianthus annuus L.) and velvetleaf (Abutilon theophrasti Medik.) were planted and treated preemergence with test chemicals formulated in a non-phytotoxic solvent mixture which included a surfactant.
At the same time, plants selected from these crop and weed species and also winter barley (Hordeum vulgare L.), blackgrass (Alopecurus myosuroides Huds.), canarygrass (Phalaris minor Retz.), chickweed (Stellaria media (L.) Vill.), downy bromegrass (Bromus tectorum L.), green foxtail (Setaria viridis (L.) Beauv.), Italian ryegrass (Lolium multiflorum Lam.), wheat (Triticum aestivum L.), wild oat (Avenafatua L.) and windgrass (Apera spica-venti (L.) Beauv.) were treated with postemergence applications of some of the test chemicals formulated in the same manner. Plants ranged in height from 2 to 18 cm (1- to 4-leaf stage) for postemergence treatments. Plant species in the flooded paddy test consisted of rice (Oryza sativa), smallflower umbrella sedge (Cyperus difformis L.), ducksalad (Heteranthera limosa (Sw.) Willd.) and barnyardgrass (Echinochloa crus-galli (L.) Beauv.) grown to the 2-leaf stage for testing. Treated plants and controls were maintained in a greenhouse for 12 to 14 days, after which time all species were compared to controls and visually evaluated. Plant response ratings, summarized in Table C, are based on a scale of 0 to 100 where 0 is no effect and 100 is complete control. A dash (-) response means no test result.

[3] = tested on: bermudagrass; assay: Test C pre-/postemergence herbicide test; type: in vivo, Cynodon dactylon
How it was run: as §1

[4] = tested on: yellow nutsedge; assay: Test C pre-/postemergence herbicide test; type: in vivo, Cyperus esculentus
How it was run: as §1

[5] = tested on: velvetleaf; assay: Test C pre-/postemergence herbicide test; type: in vivo, Abutilon theophrasti
How it was run: as §1

[6] = tested on: cocklebur; assay: Test C pre-/postemergence herbicide test; type: in vivo, Xanthium strumarium
How it was run: as §1

[7] = tested on: soybean; assay: Test C pre-/postemergence herbicide test; type: in vivo, Glycine max
How it was run: as §1

[8] = tested on: pigweed; assay: Test C pre-/postemergence herbicide test; type: in vivo, Amaranthus retroflexus
How it was run: as §1

[9] = tested on: morningglory; assay: Test C pre-/postemergence herbicide test; type: in vivo, Ipomoea coccinea; set-up: key to Plant response rating, Morningglory: 0 = no effect, 100 = complete control
How it was run: as §1

[10] = tested on: rice; assay: Test B pre-/postemergence herbicide test; type: in vivo, Oryza sativa; conditions: 0 = no effect, 100 = complete control, preemergence
How it was run: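 Herbicidal effect was judged by eye on a 0–100 scale after plants stood 13 to 15 days in the greenhouse following pre- or postemergence treatment with surfactant-containing formulations.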

[11] = tested on: barnyardgrass; assay: Test C flooded paddy test; type: in vivo, Echinochloa crus-galli
How it was run: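 Plants were grown to the 1- to 4-leaf stage (2–18 cm) and then treated postemergence, or grown to the 2-leaf stage for the flooded paddy test. They were held in a greenhouse for 12 to 14 days and then scored by eye against controls, where 0 is no effect and 100 is complete control.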

[12] = tested on: smallflower umbrella sedge; assay: Test C flooded paddy test; type: in vivo, Cyperus difformis
[13] = 31 g ai/ha, preemergence, scale 0 to 100
[14] = 125 g ai/ha, scale 0 (no effect) to 100 (complete control), visual, 12 to 14 days, preemergence
[15] = 250 g ai/ha, scale 0 to 100 (0 no effect, 100 complete control), visual, 12 to 14 days, preemergence
[16] = Postemergence, 500 g ai/ha, scale 0 to 100
[17] = Postemergence, 250 g ai/ha, scale 0 to 100, 0 no effect, 100 complete control
[18] = postemergence, 125 g ai/ha, scale 0 to 100
[19] = postemergence, 62 g ai/ha, scale 0 to 100
[20] = 125 g ai/ha, scale 0 to 100 (0 no effect, 100 complete control)
[21] = 250 g ai/ha, scale of 0 to 100, 0 is no effect, 100 is complete control
[22] = 500 g ai/ha, visual rating after 12 to 14 days, scale 0 to 100 (0 no effect, 100 complete control)

## CCCCn1nc(C(C)(C)C)cc1C(=O)Nc1cccc(C(=O)NCC)c1 [Compound 41]
[1]; [13]
  Plant response rating, Foxtail, Giant: 0
[1]; 62 g ai/ha, preemergence
  Plant response rating (0 = no effect, 100 = complete control), Foxtail, Giant: 20
[1]; [14]
  Plant response rating, Foxtail, Giant: 20
[1]; [15]
  Plant response rating, Foxtail, Giant: 30
[2]; 31 g ai/ha, scale 0 to 100
  Plant response rating, Sunflower: 0
[2]; 62 g ai/ha
  Plant response rating (0 = no effect, 100 = complete control), Sunflower: 0
[2]; 125 g ai/ha, scale 0 (no effect) to 100 (complete control), visual, 12 to 14 days
  Plant response rating, Sunflower: 0
[2]; 250 g ai/ha, scale 0 to 100 (0 no effect, 100 complete control), visual, 12 to 14 days
  Plant response rating, Sunflower: 0
[3]; [13]
  Plant response rating, Bermudagrass: 30
[3]; 62 g ai/ha, preemergence
  Plant response rating (0 = no effect, 100 = complete control), Bermudagrass: 30
[3]; [14]
  Plant response rating, Bermudagrass: 50
[3]; [15]
  Plant response rating, Bermudagrass: 100
[4]; [13]
  Plant response rating, Nutsedge, Yellow: 0
[4]; 62 g ai/ha, preemergence
  Plant response rating (0 = no effect, 100 = complete control), Nutsedge, Yellow: 0
[4]; [14]
  Plant response rating, Nutsedge, Yellow: 0
[4]; [15]
  Plant response rating, Nutsedge, Yellow: 0
[5]; [13]
  Plant response rating, Velvetleaf: 0
[5]; 62 g ai/ha, preemergence
  Plant response rating (0 = no effect, 100 = complete control), Velvetleaf: 40
[5]; [14]
  Plant response rating, Velvetleaf: 40
[5]; [15]
  Plant response rating, Velvetleaf: 100
[6]; [13]
  Plant response rating, Cocklebur: 0
[6]; 62 g ai/ha, preemergence
  Plant response rating (0 = no effect, 100 = complete control), Cocklebur: 0
[6]; [14]
  Plant response rating, Cocklebur: 0
[6]; [15]
  Plant response rating, Cocklebur: 10
[7]; [13]
  Plant response rating, Soybean: 0
[7]; 62 g ai/ha, preemergence
  Plant response rating (0 = no effect, 100 = complete control), Soybean: 0
[7]; [14]
  Plant response rating, Soybean: 0
[7]; [15]
  Plant response rating, Soybean: 10
[8]; [13]
  Plant response rating, Pigweed: 0
[8]; 62 g ai/ha, preemergence
  Plant response rating (0 = no effect, 100 = complete control), Pigweed: 0
[8]; [14]
  Plant response rating, Pigweed: 90
[8]; [15]
  Plant response rating, Pigweed: 100
[9]; [13]
  Plant response rating, Morningglory: 0
[9]; 62 g ai/ha, preemergence
  Plant response rating (0 = no effect, 100 = complete control), Morningglory: 0
[9]; [14]
  Plant response rating, Morningglory: 0
[9]; [15]
  Plant response rating, Morningglory: 20

## CCn1nc(C(C)(C)C)cc1C(=O)Nc1cccc(OC(F)(F)F)c1 [Compound 272]
[1]; [16]
  Foxtail, Giant plant response rating: 75
[1]; [17]
  Plant response rating, Foxtail, Giant: 60
[1]; [18]
  Plant response rating, Foxtail, Giant: 45
[1]; [19]
  Plant response rating, Foxtail, Giant: 15
[3]; [16]
  Bermudagrass plant response rating: 100
[3]; [17]
  Plant response rating, Bermudagrass: 100
[3]; [18]
  Plant response rating, Bermudagrass: 80
[3]; [19]
  Plant response rating, Bermudagrass: 50
[10]; 125 g ai/ha
  Rice plant response rating (0 to 100 scale): 0
[10]; 500 g ai/ha, visual rating
  Plant response rating, Rice: 20
[4]; [16]
  Nutsedge, Yellow plant response rating: 0
[4]; [17]
  Plant response rating, Nutsedge, Yellow: 0
[4]; [18]
  Plant response rating, Nutsedge, Yellow: 0
[4]; [19]
  Plant response rating, Nutsedge, Yellow: 0
[5]; [16]
  Velvetleaf plant response rating: 100
[5]; [17]
  Plant response rating, Velvetleaf: 100
[5]; [18]
  Plant response rating, Velvetleaf: 95
[5]; [19]
  Plant response rating, Velvetleaf: 85
[11]; 62 g ai/ha, scale 0 to 100 (0 no effect, 100 complete control)
  Barnyardgrass plant response rating: 0
[11]; [20]
  Barnyardgrass plant response rating: 0
[11]; [21]
  Barnyardgrass plant response rating: 10
[11]; [22]
  Plant response rating, Barnyardgrass: 30
[6]; [16]
  Cocklebur plant response rating: 95
[6]; [17]
  Plant response rating, Cocklebur: 60
[6]; [18]
  Plant response rating, Cocklebur: 60
[6]; [19]
  Plant response rating, Cocklebur: 15
[7]; [16]
  Soybean plant response rating: 95
[7]; [17]
  Plant response rating, Soybean: 85
[7]; [18]
  Plant response rating, Soybean: 80
[7]; [19]
  Plant response rating, Soybean: 60
[8]; [16]
  Pigweed plant response rating: 100
[8]; [17]
  Plant response rating, Pigweed: 100
[8]; [18]
  Plant response rating, Pigweed: 100
[8]; [19]
  Plant response rating, Pigweed: 100
[12]; 62 g ai/ha, scale 0 to 100
  Sedge, Umbrella plant response rating: 30
[12]; [20]
  Sedge, Umbrella plant response rating: 65
[12]; [21]
  Sedge, Umbrella plant response rating: 75
[12]; [22]
  Plant response rating, Sedge, Umbrella: 75
[9]; [16]
  Morningglory plant response rating: 100
[9]; [17]
  Plant response rating, Morningglory: 100
[9]; [18]
  Plant response rating, Morningglory: 100
[9]; [19]
  Plant response rating, Morningglory: 80
